Assays:
[1] = xn = mol fraction of the nth substance listed; conditions: 81.5 kPa, Liquid, Vibrating tube method
[2] = refractive index (Na D-line) (dimensionless); xn = mol fraction of the nth substance listed; conditions: 81.5 kPa, Liquid, Standard Abbe refractometry

CNC1CCCCC1 [N-methylcyclohexylamine] + CCC(C)O
Conditions | mass density, 298.15 K [kg/m3] | mass density, 308.15 K [kg/m3] | mass density, 318.15 K [kg/m3] | mass density, 328.15 K [kg/m3] | refractive index, 298.15 K | refractive index, 308.15 K | refractive index, 318.15 K | refractive index, 328.15 K
[1], x2 = 0 | 865.2 | 856.57 | 847.67 | 838.68 | – | – | – | –
[1], x2 = 0.1217 | 861.95 | 853.4 | 844.58 | 835.58 | – | – | – | –
[1], x2 = 0.2333 | 858.47 | 849.82 | 840.98 | 831.86 | – | – | – | –
[1], x2 = 0.3367 | 854.47 | 845.86 | 836.97 | 827.75 | – | – | – | –
[1], x2 = 0.4323 | 850 | 841.4 | 832.5 | 823.2 | – | – | – | –
[1], x2 = 0.5211 | 845.14 | 836.51 | 827.6 | 818.27 | – | – | – | –
[1], x2 = 0.603 | 840.01 | 831.35 | 822.48 | 813.01 | – | – | – | –
[1], x2 = 0.6803 | 834.52 | 825.88 | 817.02 | 807.46 | – | – | – | –
[1], x2 = 0.7528 | 828.72 | 820.14 | 811.27 | 801.72 | – | – | – | –
[1], x2 = 0.8202 | 822.7 | 814.18 | 805.33 | 795.72 | – | – | – | –
[1], x2 = 0.8827 | 816.47 | 807.88 | 799.18 | 789.6 | – | – | – | –
[1], x2 = 0.9426 | 809.83 | 801.25 | 792.58 | 782.94 | – | – | – | –
[2], x2 = 0 | – | – | – | – | 1.45306 | 1.44812 | 1.4431 | 1.43809
[2], x2 = 0.1217 | – | – | – | – | 1.44931 | 1.44493 | 1.44047 | 1.43597
[2], x2 = 0.2333 | – | – | – | – | 1.44578 | 1.44144 | 1.43701 | 1.43258
[2], x2 = 0.3367 | – | – | – | – | 1.44206 | 1.43776 | 1.4334 | 1.42907
[2], x2 = 0.4323 | – | – | – | – | 1.43795 | 1.43374 | 1.42946 | 1.4252
[2], x2 = 0.5211 | – | – | – | – | 1.43338 | 1.42927 | 1.42503 | 1.42076
[2], x2 = 0.603 | – | – | – | – | 1.42849 | 1.42444 | 1.42021 | 1.41587
[2], x2 = 0.6803 | – | – | – | – | 1.42326 | 1.41926 | 1.41502 | 1.41065
[2], x2 = 0.7528 | – | – | – | – | 1.41783 | 1.41387 | 1.40967 | 1.40535
[2], x2 = 0.8202 | – | – | – | – | 1.41236 | 1.40841 | 1.40429 | 1.4001
[2], x2 = 0.8827 | – | – | – | – | 1.40689 | 1.40292 | 1.39886 | 1.39478
[2], x2 = 0.9426 | – | – | – | – | 1.40126 | 1.39719 | 1.39303 | 1.38886

Reference: the NIST ThermoML archive (doi:10.1016/j.jct.2017.02.023)
